The kinase profiling compilation of Christmann-Franck et al. (2016)

Legend:
Assay in all cases: radiometric filter-binding kinase assay
[1] = molecular target: EPHB1 (human) (UniProt P54762)
[2] = molecular target: CaMK1 (human) (UniProt Q14012)
[3] = molecular target: BTK (human) (UniProt Q06187)
[4] = test system: ROCK2 (rat); settings: accession and sequence are those of the human protein
[5] = molecular target: TAOK1 (human) (UniProt Q7L7X3)
[6] = molecular target: MAPKAPK5 (human) (UniProt Q8IW41)
[7] = molecular target: EPHA2 (human) (UniProt P29317)
[8] = molecular target: DYRK1A (human) (UniProt Q13627)
[9] = test system: LCK (mouse); settings: accession and sequence are those of the human protein
[10] = molecular target: RPS6KA5 KD1 KD2 (human) (UniProt O75582)
[11] = molecular target: MAP2K6 (human) (UniProt P52564)
[12] = molecular target: MAPK14 (human) (UniProt Q16539)
[13] = molecular target: DAPK1 (human) (UniProt P53355)
[14] = molecular target: DYRK3 (human) (UniProt O43781)
[15] = molecular target: CSNK2A1 (human) (UniProt P68400)
[16] = molecular target: NUAK1 (human) (UniProt O60285)
[17] = molecular target: DYRK2 (human) (UniProt Q92630)
[18] = test system: AKT1 (human), P31749 [S473D]
[19] = molecular target: EEF2K (human) (UniProt O00418)
[20] = molecular target: IKBKE (human) (UniProt Q14164)
[21] = molecular target: HIPK1 (human) (UniProt Q86Z02)
[22] = molecular target: ERBB4 (human) (UniProt Q15303)
[23] = molecular target: MARK3 (human) (UniProt P27448)
[24] = molecular target: MARK1 (human) (UniProt Q9P0L2)
[25] = molecular target: MST4 (human) (UniProt Q9P289)
[26] = molecular target: PAK4 (human) (UniProt O96013)
[27] = molecular target: PAK7 (human) (UniProt Q9P286)
[28] = molecular target: MAPK11 (human) (UniProt Q15759)
[29] = molecular target: EPHB3 (human) (UniProt P54753)
[30] = molecular target: MAPK13 (human) (UniProt O15264)
[31] = molecular target: MAP3K9 (human) (UniProt P80192)
[32] = molecular target: HIPK3 (human) (UniProt Q9H422)
[33] = molecular target: PRKCZ (human) (UniProt Q05513)
[34] = molecular target: HIPK2 (human) (UniProt Q9H2X6)
[35] = molecular target: NEK6 (human) (UniProt Q9HC98)
[36] = molecular target: PAK6 (human) (UniProt Q9NQU5)

MARK1 (human), sequence (Q9P0L2 whole entry, looked up): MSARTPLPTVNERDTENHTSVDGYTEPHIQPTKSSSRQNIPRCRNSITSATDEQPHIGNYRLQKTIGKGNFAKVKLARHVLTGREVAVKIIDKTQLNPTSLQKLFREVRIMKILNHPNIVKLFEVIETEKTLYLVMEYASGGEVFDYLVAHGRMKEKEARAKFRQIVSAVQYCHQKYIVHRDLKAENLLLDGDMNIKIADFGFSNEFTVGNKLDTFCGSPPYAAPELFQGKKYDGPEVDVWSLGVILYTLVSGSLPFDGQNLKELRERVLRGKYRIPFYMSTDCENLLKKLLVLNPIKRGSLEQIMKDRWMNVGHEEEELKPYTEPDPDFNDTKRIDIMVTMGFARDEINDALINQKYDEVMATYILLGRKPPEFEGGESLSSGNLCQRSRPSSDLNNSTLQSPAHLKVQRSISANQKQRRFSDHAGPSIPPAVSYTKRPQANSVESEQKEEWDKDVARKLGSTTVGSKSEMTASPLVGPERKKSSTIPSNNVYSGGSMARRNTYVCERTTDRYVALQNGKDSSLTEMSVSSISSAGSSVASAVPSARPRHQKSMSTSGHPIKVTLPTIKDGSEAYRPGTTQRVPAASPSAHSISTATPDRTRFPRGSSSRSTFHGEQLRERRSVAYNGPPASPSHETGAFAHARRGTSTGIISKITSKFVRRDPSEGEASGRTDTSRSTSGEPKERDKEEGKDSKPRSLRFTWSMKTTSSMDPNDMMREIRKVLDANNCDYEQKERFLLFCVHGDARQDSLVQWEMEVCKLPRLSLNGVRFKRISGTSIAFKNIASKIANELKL
RPS6KA5 KD1 KD2 (human), sequence (O75582 whole entry, looked up): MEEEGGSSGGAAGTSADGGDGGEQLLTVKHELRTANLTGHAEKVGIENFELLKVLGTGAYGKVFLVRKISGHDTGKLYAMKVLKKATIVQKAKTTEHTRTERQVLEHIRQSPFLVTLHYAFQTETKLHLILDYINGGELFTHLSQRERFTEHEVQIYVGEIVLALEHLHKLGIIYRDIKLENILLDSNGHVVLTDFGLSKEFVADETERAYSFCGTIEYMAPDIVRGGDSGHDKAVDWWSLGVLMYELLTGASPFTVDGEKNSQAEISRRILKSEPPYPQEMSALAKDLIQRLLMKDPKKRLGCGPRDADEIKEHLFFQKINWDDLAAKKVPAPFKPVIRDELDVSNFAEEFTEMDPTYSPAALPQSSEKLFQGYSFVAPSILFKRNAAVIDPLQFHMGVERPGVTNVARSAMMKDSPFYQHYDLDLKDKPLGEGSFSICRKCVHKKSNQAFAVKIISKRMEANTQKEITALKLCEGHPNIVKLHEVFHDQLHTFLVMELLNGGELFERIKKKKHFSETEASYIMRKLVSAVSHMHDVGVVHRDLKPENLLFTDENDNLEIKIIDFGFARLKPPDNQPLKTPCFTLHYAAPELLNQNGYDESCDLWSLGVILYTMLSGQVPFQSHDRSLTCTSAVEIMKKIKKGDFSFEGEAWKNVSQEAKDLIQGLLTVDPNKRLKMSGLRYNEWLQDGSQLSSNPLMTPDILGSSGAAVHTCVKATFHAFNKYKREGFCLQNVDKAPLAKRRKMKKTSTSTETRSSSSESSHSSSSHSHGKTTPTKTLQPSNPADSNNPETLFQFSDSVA
MAPKAPK5 (human), sequence (Q8IW41 whole entry, looked up): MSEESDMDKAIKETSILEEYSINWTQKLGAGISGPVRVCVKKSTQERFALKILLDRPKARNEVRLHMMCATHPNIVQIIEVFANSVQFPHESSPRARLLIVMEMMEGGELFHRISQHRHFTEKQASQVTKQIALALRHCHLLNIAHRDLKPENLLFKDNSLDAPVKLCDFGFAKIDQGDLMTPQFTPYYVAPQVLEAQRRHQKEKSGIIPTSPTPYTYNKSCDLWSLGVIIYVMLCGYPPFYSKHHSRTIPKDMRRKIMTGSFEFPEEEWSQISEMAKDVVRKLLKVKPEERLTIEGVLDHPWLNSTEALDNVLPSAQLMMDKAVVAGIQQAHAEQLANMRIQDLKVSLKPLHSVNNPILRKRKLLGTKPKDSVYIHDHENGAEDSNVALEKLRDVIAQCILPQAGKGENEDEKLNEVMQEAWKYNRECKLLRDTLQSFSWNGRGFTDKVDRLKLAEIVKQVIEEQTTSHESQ
IKBKE (human), sequence (Q14164 whole entry, looked up): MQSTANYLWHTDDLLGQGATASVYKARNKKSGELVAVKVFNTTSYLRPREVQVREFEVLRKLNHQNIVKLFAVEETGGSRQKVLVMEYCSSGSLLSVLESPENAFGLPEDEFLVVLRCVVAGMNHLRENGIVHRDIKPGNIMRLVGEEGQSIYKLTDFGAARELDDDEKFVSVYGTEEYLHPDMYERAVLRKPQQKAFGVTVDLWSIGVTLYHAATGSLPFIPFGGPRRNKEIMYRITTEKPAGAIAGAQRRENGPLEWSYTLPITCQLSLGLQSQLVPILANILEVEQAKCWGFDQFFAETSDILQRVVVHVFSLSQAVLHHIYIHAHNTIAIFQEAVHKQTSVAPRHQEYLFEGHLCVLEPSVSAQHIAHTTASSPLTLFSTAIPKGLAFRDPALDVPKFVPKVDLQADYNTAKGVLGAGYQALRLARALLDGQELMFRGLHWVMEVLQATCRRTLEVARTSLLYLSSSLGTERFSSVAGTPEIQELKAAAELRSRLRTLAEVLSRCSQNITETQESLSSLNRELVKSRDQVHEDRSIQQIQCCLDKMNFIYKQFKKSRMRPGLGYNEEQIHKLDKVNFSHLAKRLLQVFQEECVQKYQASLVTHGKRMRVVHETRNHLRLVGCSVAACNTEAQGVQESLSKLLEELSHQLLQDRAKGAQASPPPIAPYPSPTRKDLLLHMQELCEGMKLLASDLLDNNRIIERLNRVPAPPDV
EPHB3 (human), sequence (P54753 whole entry, looked up): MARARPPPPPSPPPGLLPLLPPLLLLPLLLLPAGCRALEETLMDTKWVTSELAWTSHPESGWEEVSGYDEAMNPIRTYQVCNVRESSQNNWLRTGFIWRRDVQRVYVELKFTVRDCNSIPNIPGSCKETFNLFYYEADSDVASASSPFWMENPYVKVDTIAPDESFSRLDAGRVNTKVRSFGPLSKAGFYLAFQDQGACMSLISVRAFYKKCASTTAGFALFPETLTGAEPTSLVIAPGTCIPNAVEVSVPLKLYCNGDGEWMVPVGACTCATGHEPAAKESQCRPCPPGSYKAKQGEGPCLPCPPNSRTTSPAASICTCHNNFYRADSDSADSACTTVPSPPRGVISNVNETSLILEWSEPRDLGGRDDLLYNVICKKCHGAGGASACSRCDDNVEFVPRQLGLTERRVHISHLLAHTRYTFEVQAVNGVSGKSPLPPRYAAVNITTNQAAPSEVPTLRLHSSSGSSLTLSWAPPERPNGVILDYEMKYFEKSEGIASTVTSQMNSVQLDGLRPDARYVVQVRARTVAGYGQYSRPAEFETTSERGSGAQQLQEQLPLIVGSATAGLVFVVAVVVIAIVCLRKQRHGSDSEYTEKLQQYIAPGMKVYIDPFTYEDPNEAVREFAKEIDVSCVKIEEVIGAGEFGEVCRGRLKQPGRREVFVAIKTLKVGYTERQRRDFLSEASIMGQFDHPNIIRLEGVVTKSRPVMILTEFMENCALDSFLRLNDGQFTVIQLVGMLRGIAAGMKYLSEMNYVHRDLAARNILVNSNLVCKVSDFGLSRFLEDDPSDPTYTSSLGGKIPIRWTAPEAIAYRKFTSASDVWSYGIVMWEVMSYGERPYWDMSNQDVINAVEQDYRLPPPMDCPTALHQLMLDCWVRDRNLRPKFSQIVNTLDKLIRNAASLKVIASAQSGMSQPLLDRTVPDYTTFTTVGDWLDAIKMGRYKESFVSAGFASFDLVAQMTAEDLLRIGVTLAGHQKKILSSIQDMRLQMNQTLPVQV
EPHB1 (human), sequence (P54762 whole entry, looked up): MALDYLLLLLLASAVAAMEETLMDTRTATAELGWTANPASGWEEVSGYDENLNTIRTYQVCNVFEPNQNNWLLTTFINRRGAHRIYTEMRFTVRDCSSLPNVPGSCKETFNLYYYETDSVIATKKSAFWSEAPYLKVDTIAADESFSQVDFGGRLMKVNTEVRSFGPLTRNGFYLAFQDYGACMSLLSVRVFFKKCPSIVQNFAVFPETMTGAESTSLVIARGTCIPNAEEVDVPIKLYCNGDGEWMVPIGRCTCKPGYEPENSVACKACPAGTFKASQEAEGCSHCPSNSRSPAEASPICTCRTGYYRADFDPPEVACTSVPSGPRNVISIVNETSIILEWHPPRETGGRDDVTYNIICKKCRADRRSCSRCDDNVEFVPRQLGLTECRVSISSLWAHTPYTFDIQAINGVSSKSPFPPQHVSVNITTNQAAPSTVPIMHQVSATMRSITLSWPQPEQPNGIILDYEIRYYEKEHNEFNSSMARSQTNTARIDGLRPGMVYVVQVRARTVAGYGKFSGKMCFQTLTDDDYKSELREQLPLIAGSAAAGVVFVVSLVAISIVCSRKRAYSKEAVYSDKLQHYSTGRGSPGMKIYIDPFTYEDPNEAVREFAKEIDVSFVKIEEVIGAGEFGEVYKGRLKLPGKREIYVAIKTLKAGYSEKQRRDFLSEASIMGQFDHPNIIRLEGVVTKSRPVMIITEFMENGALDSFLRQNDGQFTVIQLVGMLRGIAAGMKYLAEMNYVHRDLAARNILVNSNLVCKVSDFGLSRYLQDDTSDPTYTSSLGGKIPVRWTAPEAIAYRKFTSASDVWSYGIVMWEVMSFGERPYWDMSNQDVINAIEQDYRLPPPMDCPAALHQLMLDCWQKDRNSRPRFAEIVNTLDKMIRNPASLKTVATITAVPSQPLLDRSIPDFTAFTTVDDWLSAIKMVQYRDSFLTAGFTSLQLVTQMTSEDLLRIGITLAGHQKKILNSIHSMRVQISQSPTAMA

## Cc1ccc2c(c1)C(=O)[C@@]1(O)CCN(c3ccccc3)C1=N2
[1]; compound 10.0 µM
  residual activity: 97%
[2]; compound 10.0 µM
  residual activity: 74%
[3]; compound 10.0 µM
  residual activity: 82%
[4]; compound 10.0 µM
  residual activity: 77%
[4]; compound 100.0 µM
  residual activity: 76%
[5]; compound 10.0 µM
  residual activity: 82%
[6]; compound 10.0 µM
  residual activity: 82%
[6]; compound 100.0 µM
  residual activity: 64%
[7]; compound 10.0 µM
  residual activity: 109%
[8]; compound 10.0 µM
  residual activity: 97%
[8]; compound 100.0 µM
  residual activity: 90%
[9]; compound 10.0 µM
  residual activity: 106%
[9]; compound 100.0 µM
  residual activity: 72%
[10]; compound 10.0 µM
  residual activity: 83%
[10]; compound 100.0 µM
  residual activity: 75%
[11]; compound 10.0 µM
  residual activity: 94%
[12]; compound 10.0 µM
  residual activity: 101%
[12]; compound 100.0 µM
  residual activity: 80%
[13]; compound 10.0 µM
  residual activity: 93%
[14]; compound 10.0 µM
  residual activity: 99%
[15]; compound 10.0 µM
  residual activity: 110%
[15]; compound 100.0 µM
  residual activity: 101%
[16]; compound 10.0 µM
  residual activity: 97%
[17]; compound 10.0 µM
  residual activity: 76%
[18]; compound 10.0 µM
  residual activity: 95%
[18]; compound 100.0 µM
  residual activity: 88%
[19]; compound 10.0 µM
  residual activity: 83%
[20]; compound 10.0 µM
  residual activity: 85%
[21]; compound 10.0 µM
  residual activity: 88%
[22]; compound 10.0 µM
  residual activity: 87%
[23]; compound 10.0 µM
  residual activity: 91%
[24]; compound 10.0 µM
  residual activity: 96%
[25]; compound 10.0 µM
  residual activity: 99%
[26]; compound 10.0 µM
  residual activity: 90%
[27]; compound 10.0 µM
  residual activity: 73%
[28]; compound 10.0 µM
  residual activity: 82%
[28]; compound 100.0 µM
  residual activity: 71%
[29]; compound 10.0 µM
  residual activity: 107%
[30]; compound 10.0 µM
  residual activity: 81%
[30]; compound 100.0 µM
  residual activity: 116%
[31]; compound 10.0 µM
  residual activity: 101%
[32]; compound 10.0 µM
  residual activity: 103%
[33]; compound 10.0 µM
  residual activity: 108%
[34]; compound 10.0 µM
  residual activity: 98%
[35]; compound 10.0 µM
  residual activity: 107%
[35]; compound 100.0 µM
  residual activity: 85%
[36]; compound 10.0 µM
  residual activity: 83%

## O=C(Nc1nc2cc(C(F)(F)F)cc(NC3CC3)n2n1)c1cccnc1
[1]; compound 0.01 µM
  residual activity: 106%
[1]; compound 0.1 µM
  residual activity: 120%
[1]; compound 1.0 µM
  residual activity: 94%
[2]; compound 0.01 µM
  residual activity: 116%
[2]; compound 0.1 µM
  residual activity: 128%
[2]; compound 1.0 µM
  residual activity: 109%
[3]; compound 0.01 µM
  residual activity: 108%
[3]; compound 0.1 µM
  residual activity: 103%
[3]; compound 1.0 µM
  residual activity: 101%
[4]; compound 0.01 µM
  residual activity: 105%
[4]; compound 0.1 µM
  residual activity: 106%
[4]; compound 1.0 µM
  residual activity: 97%
[5]; compound 0.01 µM
  residual activity: 91%
[5]; compound 0.1 µM
  residual activity: 101%
[5]; compound 1.0 µM
  residual activity: 105%
[6]; compound 0.01 µM
  residual activity: 97%
[6]; compound 0.1 µM
  residual activity: 112%
[6]; compound 1.0 µM
  residual activity: 98%
[7]; compound 0.01 µM
  residual activity: 95%
[7]; compound 0.1 µM
  residual activity: 93%
[7]; compound 1.0 µM
  residual activity: 100%
[8]; compound 0.01 µM
  residual activity: 94%
[8]; compound 0.1 µM
  residual activity: 92%
[8]; compound 1.0 µM
  residual activity: 81%
[9]; compound 0.01 µM
  residual activity: 106%
[9]; compound 0.1 µM
  residual activity: 97%
[9]; compound 1.0 µM
  residual activity: 95%
[10]; compound 0.01 µM
  residual activity: 114%
[10]; compound 0.1 µM
  residual activity: 114%
[10]; compound 1.0 µM
  residual activity: 95%
[11]; compound 0.01 µM
  residual activity: 100%
[11]; compound 0.1 µM
  residual activity: 110%
[11]; compound 1.0 µM
  residual activity: 85%
[12]; compound 0.01 µM
  residual activity: 109%
[12]; compound 0.1 µM
  residual activity: 121%
[12]; compound 1.0 µM
  residual activity: 114%
[13]; compound 0.01 µM
  residual activity: 112%
[13]; compound 0.1 µM
  residual activity: 95%
[13]; compound 1.0 µM
  residual activity: 95%
[14]; compound 0.01 µM
  residual activity: 92%
[14]; compound 0.1 µM
  residual activity: 119%
[14]; compound 1.0 µM
  residual activity: 91%
[15]; compound 0.01 µM
  residual activity: 99%
[15]; compound 0.1 µM
  residual activity: 127%
[15]; compound 1.0 µM
  residual activity: 102%
[16]; compound 0.01 µM
  residual activity: 100%
[16]; compound 0.1 µM
  residual activity: 116%
[16]; compound 1.0 µM
  residual activity: 98%
[17]; compound 0.01 µM
  residual activity: 104%
[17]; compound 0.1 µM
  residual activity: 92%
[17]; compound 1.0 µM
  residual activity: 90%
[18]; compound 0.01 µM
  residual activity: 97%
[18]; compound 0.1 µM
  residual activity: 95%
[18]; compound 1.0 µM
  residual activity: 104%
[19]; compound 0.01 µM
  residual activity: 99%
[19]; compound 0.1 µM
  residual activity: 118%
[19]; compound 1.0 µM
  residual activity: 84%
[20]; compound 0.01 µM
  residual activity: 114%
[20]; compound 0.1 µM
  residual activity: 106%
[20]; compound 1.0 µM
  residual activity: 96%
[21]; compound 0.01 µM
  residual activity: 96%
[21]; compound 0.1 µM
  residual activity: 96%
[21]; compound 1.0 µM
  residual activity: 92%
[22]; compound 0.01 µM
  residual activity: 106%
[22]; compound 0.1 µM
  residual activity: 88%
[22]; compound 1.0 µM
  residual activity: 88%
[23]; compound 0.01 µM
  residual activity: 83%
[23]; compound 0.1 µM
  residual activity: 87%
[23]; compound 1.0 µM
  residual activity: 86%
[24]; compound 0.01 µM
  residual activity: 93%
[24]; compound 0.1 µM
  residual activity: 90%
[24]; compound 1.0 µM
  residual activity: 86%
[25]; compound 0.01 µM
  residual activity: 106%
[25]; compound 0.1 µM
  residual activity: 99%
[25]; compound 1.0 µM
  residual activity: 106%
[26]; compound 0.01 µM
  residual activity: 111%
[26]; compound 0.1 µM
  residual activity: 98%
[26]; compound 1.0 µM
  residual activity: 102%
[27]; compound 0.01 µM
  residual activity: 97%
[27]; compound 0.1 µM
  residual activity: 114%
[27]; compound 1.0 µM
  residual activity: 91%
[28]; compound 0.01 µM
  residual activity: 106%
[28]; compound 0.1 µM
  residual activity: 121%
[28]; compound 1.0 µM
  residual activity: 107%
[29]; compound 0.01 µM
  residual activity: 99%
[29]; compound 0.1 µM
  residual activity: 95%
[29]; compound 1.0 µM
  residual activity: 99%
[30]; compound 0.01 µM
  residual activity: 102%
[30]; compound 0.1 µM
  residual activity: 90%
[30]; compound 1.0 µM
  residual activity: 90%
[31]; compound 0.01 µM
  residual activity: 90%
[31]; compound 0.1 µM
  residual activity: 80%
[31]; compound 1.0 µM
  residual activity: 75%
[32]; compound 0.01 µM
  residual activity: 101%
[32]; compound 0.1 µM
  residual activity: 102%
[32]; compound 1.0 µM
  residual activity: 96%
[33]; compound 0.01 µM
  residual activity: 96%
[33]; compound 1.0 µM
  residual activity: 84%
[34]; compound 0.01 µM
  residual activity: 100%
[34]; compound 0.1 µM
  residual activity: 116%
[34]; compound 1.0 µM
  residual activity: 105%
[35]; compound 0.01 µM
  residual activity: 114%
[35]; compound 0.1 µM
  residual activity: 113%
[35]; compound 1.0 µM
  residual activity: 101%
[36]; compound 0.01 µM
  residual activity: 100%
[36]; compound 0.1 µM
  residual activity: 88%
[36]; compound 1.0 µM
  residual activity: 93%
